This passage reports IC50 results from patent publication US20110269758A1, “NAPHTHYRIDINONES AS PROTEIN KINASE INHIBITORS” (MERCK PATENT GMBH, priority 2008, published 2011).

Where two headings read alike, the source gives them in different places.

The target in this test is T1, Aurora Kinase A (Homo sapiens, UniProt O14965).
T1 construct: full length Aurora A (1-403 amino acids); purchased Carna Biosciences 05-101
T1 sequence (O14965 1-403): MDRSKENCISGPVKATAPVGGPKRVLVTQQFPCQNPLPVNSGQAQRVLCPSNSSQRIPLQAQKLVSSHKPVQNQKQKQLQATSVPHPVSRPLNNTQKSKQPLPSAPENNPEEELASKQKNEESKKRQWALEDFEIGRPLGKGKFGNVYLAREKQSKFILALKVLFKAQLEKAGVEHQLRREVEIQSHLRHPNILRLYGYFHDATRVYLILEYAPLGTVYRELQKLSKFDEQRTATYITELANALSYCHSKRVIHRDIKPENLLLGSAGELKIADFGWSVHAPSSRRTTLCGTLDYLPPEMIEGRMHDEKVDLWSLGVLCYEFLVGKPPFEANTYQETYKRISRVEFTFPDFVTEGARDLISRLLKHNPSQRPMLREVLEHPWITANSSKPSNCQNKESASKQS
Description: Biochemical enzyme assay for Aurora A activity (Caliper LC3000 / Desktop Profiler mobility shift). The method, then:
The Aurora assays described here were performed on two Caliper Life Sciences systems, the LC3000 and the Desktop Profiler. These provide data on enzyme activity via measurement of the relative amounts of phosphorylated or unphosphorylated fluorescently labelled substrate peptide at the end of an enzymatic reaction. These different states of peptide are resolved by applying a potential difference across the sample. The presence of a charged phosphate group on the product (as opposed to the substrate) causes a different peptide mobility between the two peptides. This is visualized by excitation of a fluorescent label on the substrate and product peptides and represented as peaks within the analysis software.
In order to measure inhibitor activity of Aurora A inhibitors in the Caliper Life Sciences LC3000, a TTP Mosquito liquid handling instrument was used to place 0.25 μl of an appropriate concentration of inhibitor in 100% DMSO (for a dose response curve calculation) into each well of a 384-well plate.
The reaction was incubated for 90 min at 25° C., and then stopped by the addition of 70 μl of Stop buffer (100 mM HEPES pH 7.5, 0.015% Brij-35, 10 mM EDTA (Sigma, E7889)).
The plate was read on a Caliper LC 3000 in an Off-Chip mobility shift assay format, using the following parameters for a 12-sipper chip: screening pressure −1.8 psi, upstream voltage −2700, downstream voltage −1000. These conditions cause unphosphorylated substrate and phosphorylated product peptide to resolve as separate peaks allowing direct measurement of percentage of conversion of substrate to product.
The Desktop Profiler utilizes the same prinicipal as the LC 3000 for calculating percentage conversion of a substrate to product. Caliper Life Sciences provided proprietary flash frozen pre-made 384 well plates containing selected kinases. Each column in the 384 well plate contained a particular selected kinase. A second plate, the ‘substrate plate’ contained a mix of fluorescently labeled peptide substrate and ATP. These were arranged in columns so that transfer for substrate plate to enzyme plate provided the correct enzyme with the correct substrate/ATP concentration.
Compounds were added to a thawed enzyme plate in the desired format, in single concentrations. Reactions were initiated by transfer of the substrate/ATP mix from the substrate plate. The enzyme plate was incubated for 90 mins at 25° C. The reaction was stopped by addition of 70 μl of Stop Buffer (100 mM HEPES pH 7.5, 0.015% Brij-35, 10 mM EDTA (Sigma, E7889)).
Plates were read in a manner identical to that of the LC3000, and the ratio between substrate and product peaks provided the activity of the enzyme in that well.

Setting [1] is: GST-Aurora A, 15 μM ATP, 90 min at 25° C., LC3000 or Desktop Profiler, read-out: Aurora Kinase A IC50.

One may read the IC50 as the concentration that gives 50% inhibition. Turning to `O=C(Nc1ccc(Nc2ccnc3[nH]c(=O)ccc23)cc1)c1cccc(F)c1` [Compound 35, 3-Fluoro-N-(4-(7-oxo-7,8-dihydro-1,8-naphthyridin-4-yl-amino)phenyl)benzamide], the concentration for half-maximal inhibition (IC50) under setting [1] fell in the range of 1 to 300 nM. For `O=C(Nc1ccc(Nc2ccnc3[nH]c(=O)ccc23)cc1)c1ccc(F)c(F)c1` [Compound 42, 3,4-Difluoro-N-(4-(7-oxo-7,8-dihydro-1,8-naphthyridin-4-yl-amino)phenyl)benzamide], the 50% inhibitory concentration (IC50) under setting [1] lay within 1 to 300 nM. The same measure, in the same setting: to `Cc1cccc(C(=O)Nc2ccc(N)cc2)c1` [Compound 23, N-(4-Aminophenyl)-3-methyl-benzamide] belongs greater than 1000 nM.

As for `O=C(Nc1ccc(Nc2ccnc3[nH]c(=O)ccc23)cc1)c1ccc(F)cc1` [Compound 36, 4-Fluoro-N-(4-(7-oxo-7,8-dihydro-1,8-naphthyridin-4-yl-amino)phenyl)benzamide], under setting [1], the IC50 was in the range of 1 to 300 nM. The same measure, in the same setting: the value for `O=C(Nc1ccc(Nc2ccnc3[nH]c(=O)ccc23)cc1)c1ccccc1` [Compound 32, N-(4-(7-oxo-7,8-dihydro-1,8-naphthyridin-4-yl-amino)phenyl)benzamide] was 1 to 300 nM.

As for `O=c1ccc2c(Nc3c(Cl)ccc4c3OCO4)ccnc2[nH]1` [Compound 31a, 5-(5-chlorobenzo[d][1,3]dioxo-4-ylamino)-1,8-naphthyridin-2(1H)-one], under setting [1], the IC50 lay within 1 to 300 nM. On the same count and under the same terms, the value for `Nc1ccc(NC(=O)c2ccc(OC(F)(F)F)cc2)cc1` [Compound 21, N-(4-Aminophenyl)-4-trifluoromethoxy-benzamide] was 1 to 300 nM; that for `CC(C)(C)OC(=O)CC(O)c1c(Cl)ccnc1NC(=O)C(C)(C)C` (stereo not shown) [Compound 30, Tert-butyl 3-{4-chloro-2-[(2,2-dimethylpropanoyl)amino]pyridin-3-yl}-3-hydroxypropanoate] was 1 to 300 nM; that for `O=C(Nc1ccccc1Nc1ccnc2[nH]c(=O)ccc12)c1ccccc1` [Compound 47, N-(2-(7-oxo-7,8-dihydro-1,8-naphthyridin-4-ylamino)phenyl)benzamide] was 1 to 300 nM.

For `Nc1ccc(NC(=O)C2CCCCC2)cc1` [Compound 13, Cyclohexanecarboxylic acid (4-aminophenyl)-amide], under setting [1], the half-inhibitory concentration (IC50) was in the range of 1 to 300 nM. The same measure, in the same setting: to `O=c1ccc2c(Cl)ccnc2[nH]1` [Compound 31, 5-Chloro-1,8-naphthyridi-2(1H)-one] belongs 1 to 300 nM. Still for that read-out and setting: to `Nc1nccc(Cl)c1C(=O)c1ccccc1` [Compound 74, (2-Amino-4-chloro-pyridin-3-yl)-phenyl-methanone] belongs 1 to 300 nM. On the same count and under the same terms, to `O=C(O)Cc1cc2c(Cl)ccnc2[nH]c1=O` [Compound 80, (5-Chloro-2-oxo-1,2-dihydro-1,8-naphthyridin-3-yl)-acetic acid] belongs 1 to 300 nM. As for `O=C(Nc1ccccc1)c1ccc(Nc2ccnc3[nH]c(=O)ccc23)cc1` [Compound 48, 4-(7-Oxo-7,8-dihydro-1,8-naphthyridin-4-ylamino)-N-phenyl-benzamide], the IC50 under setting [1] was greater than 1000 nM. Same read-out and setting: the value for `CC(C)(C)C(=O)Nc1cc(Cl)ccn1` [Compound 28, N-(4-chloropyridin-2-yl)-2,2-dimethylpropanamide] was 1 to 300 nM; that for `O=C(Nc1ccc(Nc2ccnc3[nH]c(=O)ccc23)cc1)c1ccc(OC(F)(F)F)cc1` [Compound 56, 4-Trifluoromethoxy-N-(4-(7-oxo-7,8-dihydro-1,8-naphthyridin-4-yl-amino)phenyl)benzamide] was 601 to 1000 nM.

For `COc1ccccc1C(=O)Nc1ccc(N)cc1` [Compound 16, N-(4-Aminophenyl)-2-methoxy-benzamide], the concentration for half-maximal inhibition (IC50) is 1 to 300 nM. On to `Nc1ccc(NC(=O)c2ccc(Cl)cc2)cc1` [Compound 20, N-(4-Aminophenyl)-4-chloro-benzamide], for which the IC50 under setting [1] fell in the range of 1 to 300 nM.

Regarding `O=C(Nc1ccc(Nc2ccnc3[nH]c(=O)ccc23)cc1)c1cc(F)cc(F)c1` [Compound 43, 3,5-Difluoro-N-(4-(7-oxo-7,8-dihydro-1,8-naphthyridin-4-yl-amino)phenyl)benzamide], the concentration for half-maximal inhibition (IC50) under setting [1] was in the range of 1 to 300 nM.
